Data set [1] addresses Menin protein (Homo sapiens, UniProt O00255, DEL460-519). Kind of data set: Menin/MLL fluorescence polarization (FP) assay. Conditions: Menin 2 nM, cRho110-Ahx-MBM1/MBM2 peptide 1 nM. The class given is binding. As to the method:
Compounds were tested in a biochemical binding assay using Menin protein at 2 nM (N6his-tev-Menin_4i80, PB-20-1459) and the substrate cRho110-Ahx-MBM1/MBM2 peptide (UbiQ, UbiQ-Q20201030; cRh110-Ahx-[…]-QRVPALLLPPG-NH2) at 1 nM.
384 Low volume black plates (Corning #4514) were used. 5 μL/well compound or 3% DMSO was added at 10-fold serial dilutions in DMSO from 10 μM. 5 μL/well cRho110-Ahx-MBM1/MBM2 peptide or binding buffer (50 mM Tris pH 7.5, 50 mM NaCl, 1 mM TCEP, 0.01% BGG, 0.01% Brij-35) was added to all wells. 5 μL/well Menin protein or binding buffer (50 mM Tris pH 7.5, 50 mM NaCl, 1 mM TCEP, 0.01% BGG, 0.01% Brij-35) was added to all wells. Plates were read on an EnVision plate reader (Perkin Elmer) with excitation at 480 nm and emission at 535 nm P+S, and measured every 5 minutes for 180 minutes.
Data were analyzed in Genedata Screener®. IC50 values were determined by plotting % inhibition versus log compound concentration and using a one site dose response model. Raw data signals were normalized using 1% DMSO no Menin as 100% inhibitor control and 1% DMSO with Menin and no inhibitor as 0% inhibitor control.

Data set [2] deals with MOLM-13 cells. Kind of data set: Proliferation assay, MOLM-13 (CellTiter-Glo, 7 days). The class given is cell-based, human. The method, then:
(§1) The anti-proliferative effect of compounds was tested in human leukaemia cell lines. The cell lines […] and MV4; 11 each harbor an MLL translocation expressing the MLL fusion proteins MLL-AF9 and MLL-AF4, respectively. Each also express the wildtype protein from the second allele. OCI-AML3 cells carrying the NPM1c gene mutation were also tested.
(§2) MOLM-13 and HEL cells were cultured in RPMI 1640 (Gibco) supplemented with 10% FBS (Gibco) and 1% Pen/Strep (Gibco). MV4; 11 cells were cultured in IMDM (Gibco) supplemented with 10% FBS (Gibco) and 1% Pen/Strep (Gibco). OCI-AML3 cells were cultured in MEMa (Gibco) supplemented with 20% FBS (Gibco) and 1% Pen/Strep (Gibco).
(§3) To assess proliferative effects, 125 MOLM-13 cells, 300 MV4; 11 cells, 75 OCI-AML3 cells, and 200 HEL cells were seeded in 40 μL media per well in 384-well ViewPlates (Perkin Elmer, 6007480). Cell seeding numbers were chosen based on growth curves to ensure linear growth throughout the experiments. Test compounds were added at 3.16-fold serial dilutions in DMSO from […] and DMSO content was normalized to 0.1%. Cells were incubated for 7 days at 37° C. and 5% CO2. A day 0 plate was seeded for each cell line and used as a standard control.
(§4) To measure cell viability, CellTiter-Glo 2.0 (Promega, G9242) luminescent growth indicator was used. 10 μL CellTiter-Glo reagent was added per well. Plates were placed on a plate shaker for 2 minutes in the dark and left to incubate off the shaker for another 8 minutes in the dark, for a total of 10 minutes. Plates were read using an EnVision plate reader (Perkin Elmer) using the Luminescence aperture and a measurement time of 0.1 second.
(§5) Data were analyzed in Genedata Screener®. IC50 values were determined by plotting % inhibition versus log compound concentration and using a one site dose response model. Raw data signals were normalized using 0.1% DMSO media only as background control, 0.1% DMSO with cells no compound as 100% viability (maximum signal), and day 0 0.1% DM with cells no compound as 0% viability (minimum signal).

Data set [3] relates to HEL cells. Kind of data set: Proliferation assay, HEL control cell line (CellTiter-Glo, 7 days). The class given is cell-based, human. The method, then: as §1, §2, §3, §4, §5
The target of data set [4] is hERG (Homo sapiens (Human), UniProt Q12809). The experiment in a line: hERG assay 1 (standard), SyncroPatch 384PE. The class given is cell-based. Conditions: CHO cells, room temperature, up to 40 uM. The method, then:
Experiments were performed on the SyncroPatch 384PE (Nanion Technologies) high throughput patch clamp platform at room temperature and used medium resistance chips with 4 patch holes per site. hERG-expressing Chinese hamster ovary K1 (CHO) cell line was used in assay-ready format and kept in liquid nitrogen until use. 2 vials of cells (10×10^6 cells per vial) were thawed and added to 20 ml Hepes-buffered saline solution (HBSS). HBSS comprised 140 mM NaCl, 4 mM KCl, 10 mM HEPES and 5 mM Glucose (pH 7.4). The internal patch clamp solution was KF 120 mM, KCl 20 mM, HEPES 10 mM, EGTA 10 mM, and 25 μM Escin (pH 7.2). After the initial sealing process was complete, a seal enhancer solution comprising HBSS supplemented with 10 mM CaCl2 and 1 mM MgCl2 was applied to cells. The external solution was then exchanged (4 times) for external patch clamp solution comprising NaCl 80 mM, KCl 4 mM, HEPES 10 mM, CaCl2 2 mM, MgCl2 1 mM, glucose 5 mM, and NMDG 60 mM (pH7.4). All compounds were dispensed from initial 10 mM DMSO stocks. An industry standard +60/−40 mV voltage protocol was applied every 15 seconds. Compounds were tested in a 6-point cumulative assay (final DMSO concentration 0.33%), with a concentration range of 139 nM to 40 uM. Data were analyzed in Genedata Screener®. IC50 values were determined by plotting % inhibition versus log compound concentration and using a one site dose response model. Only wells that passed acceptance criteria for this platform were used in this analysis (30 MegaOhm seal resistance, Z prime >0.4 and current size >0.2 nA).

A short description of data set [5]: Human liver microsomes (HLMs) intrinsic clearance assay. The class given is in vitro ADME. As to the method: Human liver microsomes (HLMs) were obtained from Corning (UltraPool 150 donors) at a concentration of 20 mg/mL protein. HLMs were stored at −80° C. until use and prior to use, thawed in a 37° C. water bath and then stored on wet ice. DMSO and NADPH were sourced from Solarbio S&T Co Ltd.
2 mL of 10 mM DMSO stock solutions of test compound were added to 198 mL acetonitrile to produce […] concentration. 1325 mL of 20 mg/mL HLM were added to 22260 mL of phosphate buffer to produce the HLM mixture. An 8.334 mg/mL solution of NADPH was prepared in 100 mmol/L pH 7.4 phosphate buffer.
222.5 mL of the HLM mixture and 25 mL of the 10 mM NADPH were added into the incubation plates (1 mL 96 well deep well plate from Thermo). The mixture was vortexed for 10 seconds at 1000 rpm. The incubation plate was pre-warmed in a water bath at 37° C. for 8 minutes. 2.5 mL of the […] stocks of test compound was added to initiate the reaction. The mix was vortexed for 12 seconds at 1000 rpm and incubated at 37° C. The incubation mixture (250 mL) contained 1 mg/mL HLM, 1 mmol/L NADPH and […].
The reaction was quenched by transferring 20 mL of the incubation mixture at 0.5, 5, 10, 15, 20 and 30 minutes into the quenching plate containing 100 mL of cold stop solution (acetonitrile containing internal standards). The plate was vortexed at 800 rpm for 2 minutes.
The quenching plates were centrifuged for 20 minutes at 4000 rpm and 4° C. 40 mL of the supernatant was transferred into a 96-well analysis plate containing 160 mL of water. The analysis plate was shaken at 1000 rpm for 2 minutes and the samples analysed by LC-MS/MS.
Peak areas were determined from extracted ion chromatograms. Percent parent remaining was calculated from peak area of test compound. The slope value, k, was determined by linear regression of the natural logarithm of percent parent remaining versus incubation time. The in vitro half-life (t1/2) was determined from the slope value by the equation: […]
Conversion of the in vitro half-life (min) into in vitro CLint (mL/min/mg proteins) was completed using the equation: […]

Data set [6] can be described thus: Human hepatocyte intrinsic clearance assay. The class given is in vitro ADME. Conditions: human hepatocytes. As to the method:
Human hepatocytes (LiverPool™ 10-Donor Human hepatocytes (Mixed Gender, PEG-free, Product No. S01205, 5 million cells per vial) were obtained from BioreclamationIVT. DMSO was sourced from Solarbio S&T Co Ltd. Leibovitz's L-15 Medium, Williams' Medium E, GlutaMAX™-1 (100×), HEPES, DPBS (10×) and Human Recombinant Insulin Solution were purchased from Gibco. Isotonic Percoll Solution was purchased from GE Healthcare. Fetal Bovine Serum (FBS) was purchased from Corning.
10 mM dexamethasone stock solution was prepared by dissolving 3.9 mg dexamethasone in 1 mL of DMSO. An Isotonic Percoll Solution was prepared by dilution of Percoll with DPBS (10×). 15 mL of Isotonic Percoll Solution (90% Percoll/10% DPBS) was added to 31.25 mL William's E medium containing 500 mL of GlutaMAX™-1 (100×), 750 mL of 1M HEPES, 2.5 mL of 5% FBS, 50 mL of 4 mg/mL Human Recombinant Insulin Solution and 5 mL of the 10 mM dexamethasone stock.
2 mL of 10 mM DMSO stock solutions of test compound were added to 198 mL acetonitrile to produce 100 mmol/L concentration.
The human hepatocyte vial was thawed at 37° C. in a waterbath. Once thawed, contents were poured into a 50 mL conical tube and centrifuged at 100 g for 10 minutes. The thawing medium was poured out and 4 mL L-15 medium was added. The tube was gently shaken to resuspend the hepatocytes and cells were counted with an appropriate cell counter. 247.5 mL of the hepatocyte suspension was transferred into each well of the plate and pre-warmed at 600 rpm and 50° C. to enable the temperature to rise to 37° C.
2.5 mL of the […] test compound solution was added to initiate the reaction (final concentration […]) and incubated at 37° C. with shaking at 900 rpm. At 0.5, 5, 15, 30, 45, 60, 80, 100 and 120 minutes, 20 mL was taken into a quenching solution of acetonitrile containing internal standards. The mix was vortexed at 800 rpm for 2 minutes followed by centrifugation for 20 minutes at 4000 rpm at 4° C. 40 mL of supernatant was transferred into a 96 well analysis plate containing 160 mL of water in each well. The analysis plate was shaken at 100 rpm for 2 minutes prior to analysis by LC-MS/MS.
Peak areas were determined from extracted ion chromatograms. Percent parent remaining was calculated from peak area of test compound. The slope value, k, was determined by linear regression of the natural logarithm of percent parent remaining versus incubation time.
The in vitro intrinsic clearance (in vitro CLint in mL/min/10^6 cells) was determined from the slope value using the following equation: […]
where V is the incubation volume (0.25 mL) and N is the number of hepatocytes per well (0.25×10^6 cells).

The mark [7] stands for this setting: human, microsomes, 1 µM, pH 7.4.

Molecules are shown by their SMILES. Read-outs that look alike come from different tables or passages of the source.

Sequence of Menin protein (O00255 with tags, fused parts or gaps DEL460-519): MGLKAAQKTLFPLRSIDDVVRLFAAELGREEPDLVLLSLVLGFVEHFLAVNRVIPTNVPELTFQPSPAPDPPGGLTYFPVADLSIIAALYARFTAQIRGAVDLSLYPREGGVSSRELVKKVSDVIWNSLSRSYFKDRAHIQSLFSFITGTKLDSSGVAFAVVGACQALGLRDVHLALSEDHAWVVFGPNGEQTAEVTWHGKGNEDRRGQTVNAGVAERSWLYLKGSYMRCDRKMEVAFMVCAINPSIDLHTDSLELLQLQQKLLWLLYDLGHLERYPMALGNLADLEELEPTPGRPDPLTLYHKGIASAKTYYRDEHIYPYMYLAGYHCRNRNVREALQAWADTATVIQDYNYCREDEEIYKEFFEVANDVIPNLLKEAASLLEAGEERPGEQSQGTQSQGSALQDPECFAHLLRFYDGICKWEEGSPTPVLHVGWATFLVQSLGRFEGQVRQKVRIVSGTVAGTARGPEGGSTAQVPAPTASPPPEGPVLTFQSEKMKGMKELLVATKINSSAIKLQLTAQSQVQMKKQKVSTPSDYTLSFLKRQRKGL
Sequence of hERG (Q12809 whole entry): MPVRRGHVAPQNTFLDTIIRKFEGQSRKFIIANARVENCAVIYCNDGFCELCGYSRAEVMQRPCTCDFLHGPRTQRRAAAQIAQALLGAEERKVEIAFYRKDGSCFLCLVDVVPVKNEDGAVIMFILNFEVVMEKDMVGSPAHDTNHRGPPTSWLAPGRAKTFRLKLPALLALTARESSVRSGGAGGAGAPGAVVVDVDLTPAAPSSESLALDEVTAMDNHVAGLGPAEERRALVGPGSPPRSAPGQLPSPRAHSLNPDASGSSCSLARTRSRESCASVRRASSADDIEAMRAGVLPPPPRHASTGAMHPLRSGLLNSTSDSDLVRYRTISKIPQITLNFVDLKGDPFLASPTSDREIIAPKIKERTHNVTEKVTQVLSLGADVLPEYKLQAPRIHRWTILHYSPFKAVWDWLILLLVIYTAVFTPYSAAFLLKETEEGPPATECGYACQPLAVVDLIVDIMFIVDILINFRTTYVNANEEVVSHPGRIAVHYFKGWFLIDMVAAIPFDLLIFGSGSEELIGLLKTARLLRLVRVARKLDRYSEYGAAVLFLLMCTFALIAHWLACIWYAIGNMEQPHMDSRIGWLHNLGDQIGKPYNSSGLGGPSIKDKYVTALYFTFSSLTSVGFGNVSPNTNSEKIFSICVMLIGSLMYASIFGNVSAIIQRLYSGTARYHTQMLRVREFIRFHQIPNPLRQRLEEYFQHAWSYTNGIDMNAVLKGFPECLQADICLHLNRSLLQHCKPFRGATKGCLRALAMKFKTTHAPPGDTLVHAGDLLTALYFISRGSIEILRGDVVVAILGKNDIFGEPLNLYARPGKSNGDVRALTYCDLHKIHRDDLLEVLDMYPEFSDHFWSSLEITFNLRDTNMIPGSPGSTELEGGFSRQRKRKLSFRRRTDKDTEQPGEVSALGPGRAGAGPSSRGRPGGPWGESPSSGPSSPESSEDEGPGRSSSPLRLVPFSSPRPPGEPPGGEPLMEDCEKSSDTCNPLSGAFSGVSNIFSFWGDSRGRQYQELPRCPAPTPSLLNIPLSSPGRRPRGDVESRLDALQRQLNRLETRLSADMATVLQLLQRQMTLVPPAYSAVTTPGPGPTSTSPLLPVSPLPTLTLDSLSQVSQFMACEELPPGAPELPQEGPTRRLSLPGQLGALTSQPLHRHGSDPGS

Turning to `[2H]C([2H])([2H])C([2H])(N(C(=O)c1cc(F)ccc1-n1c(C)c(C(=O)C2CCN(C(=O)[C@@H]3CCC(C)(C)N3)CC2)c2ccncc21)C([2H])(C([2H])([2H])[2H])C([2H])([2H])[2H])C([2H])([2H])[2H]` [Example 59, (S)-2-(3-(1-(5,5-Dimethylpyrrolidine-2-carbonyl)piperidine-4-carbonyl)-2-methyl-1H-pyrrolo[2,3-c]pyridin-1-yl)-5-fluoro-N,N-bis(propan-2-yl-d7)benzamide], the IC50 in data set [1] was 0.102 µM; in data set [2] (Homo sapiens, MOLM-13, 168 h), 0.094 µM; in data set [3] (Homo sapiens, HEL, 168 h) it was over 10 µM; in data set [4], over 40 µM. The same molecule gave an intrinsic metabolic clearance (microsomal CLint) at 1 µM in data set [5] (human, microsomes, pH 7.4, HLM CLint) of 59 µL/min/mg.

For `CCN(C(=O)c1cc(F)ccc1-n1c(C)c(C(=O)[C@@H]2CCN(C(=O)[C@@H]3CCC4(CC4)N3)[C@@H](C)C2)c2ccncc21)C(C)C` (single isomer, unassigned) [Example 52-3, N-Ethyl-5-fluoro-N-isopropyl-2-(2-methyl-3-((2R*,4S*)-2-methyl-1-((S)-4-azaspiro[2.4]heptane-5-carbonyl)piperidine-4-carbonyl)-1H-pyrrolo[2,3-c]pyridin-1-yl)benzamide], the IC50 in data set [1] was 5.95 µM; in data set [2], 1.47 µM; in data set [3], over 10 µM. In data set [5] (1 mg/mL HLM, NADPH), the “HLM CLint” value was found to be 210 µL/min/mg. Also, the “HH CLint” value in data set [6] came out at 5.7 μl/min/1E6.

With `Cc1c(C(=O)[C@@H]2CCN(C(=O)[C@H]3NC[C@@H]4C[C@@H]43)[C@@H](C)C2)c2ccncc2n1-c1ccc(F)cc1C(=O)N(CC(F)(F)F)C(C)C` (single isomer, unassigned) [Example 53-2, 2-(3-((2R*,4S*)-1-((1S,2S,5R)-3-Azabicyclo[3.1.0]hexane-2-carbonyl)-2-methylpiperidine-4-carbonyl)-2-methyl-1H-pyrrolo[2,3-c]pyridin-1-yl)-5-fluoro-N-isopropyl-N-(2,2,2-trifluoroethyl)benzamide], the IC50 in data set [1] was 7.8 µM; in data set [2], 1.3 µM; in data set [3], over 10 µM. Further, in data set [5] (setting [7]), the “HLM CLint” value was 77 µL/min/mg.

With `Cc1c(C(=O)C2CCN(C(=O)[C@H]3NC[C@@H]4C[C@@H]43)CC2)c2ccncc2n1-c1ccc(F)cc1C(=O)N(C(C)C)[C@H](C)C(F)(F)F` (single isomer, unassigned) [Example 57-2], the half-inhibitory concentration (IC50) in data set [1] was over 10 µM; in data set [2] it was over 10 µM; in data set [3] it was over 10 µM; in data set [4] it was over 40 µM. Also, the “HLM CLint” value in data set [5] (setting [7]) was found to be 95 µL/min/mg.

The values above are taken from US20240335431A1, “1-H-PYRROLO[2,3-c]PYRIDINE COMPOUNDS” (Acerta Pharma B.V., priority 2023, published 2024).
